This is an account of results in patent publication US10668051B2, “Modulators of calcium release-activated calcium channel” (Rhizen Pharmaceuticals SA, priority 2009, dated 2020).

Where a name gives a salt, the structure may show the parent alone.

Format in all cases: cell-based
In experiment [1] the target is T1, CRAC channels (Homo sapiens (Human), UniProt Q96D31). Put plainly: In-vitro CRAC channel inhibition assay in NCI-H460 cancer cell line (Ca assay). The settings on record: thapsigargin-induced calcium influx, NCI-H460 cells. The protocol: 1B. In-Vitro CRAC Channel Inhibition Assay in NCI-H460 Cancer Cell Line
T1 sequence (Q96D31 whole entry): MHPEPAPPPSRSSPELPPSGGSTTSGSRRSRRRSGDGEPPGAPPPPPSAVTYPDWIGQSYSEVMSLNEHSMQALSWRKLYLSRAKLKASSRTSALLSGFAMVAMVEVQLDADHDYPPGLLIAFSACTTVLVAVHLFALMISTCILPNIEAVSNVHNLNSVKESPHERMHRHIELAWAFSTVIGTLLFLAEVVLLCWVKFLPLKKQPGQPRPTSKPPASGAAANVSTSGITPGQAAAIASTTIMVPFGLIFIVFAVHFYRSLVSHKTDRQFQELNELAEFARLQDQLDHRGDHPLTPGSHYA
Inhibition of CRAC channels was determined following thapsigargin (Sigma, Cat #T9033) induced endoplasmic calcium release in NCI-H460 cells (National Centre For Cell Science (NCCS), Pune).
Cells (30,000 per well) were plated overnight in complete RPMI medium. Medium was substituted with Ca^2+ and Mg^2+ free Hanks buffer and Fluo-8 NW dye (ABD Bioquest, Inc., Sunnyvale, Calif.) loading solution in 96-well black plate. Plate was incubated at 37° C./5% CO2 for 30 min followed by further 15 min incubation at room temperature. Test compounds (DMSO stocks diluted in Ca^2+ and Mg^2+ free Hanks buffer) at desired concentrations were added to the wells and incubated for 15 min. Thapsigargin (1 μM final concentration) was added to the wells and incubated for 15 min to inhibit the Sarco-endoplasmic reticulum Ca^2+ ATPase pump thereby depleting endoplasmic calcium and raising cytosolic calcium concentrations. Store-operated calcium entry was initiated by adding extracellular Ca^2+ to a final concentration of 2.5 mM. Fluorescence was monitored over 30 min on a plate reader (BMG Labtech., Germany) with excitation at 485 nm and an emission wavelength at 520 nm. Data were analyzed using GraphPad Prism. IC50 for each compound was determined based on the percent inhibition of Thapsigargin-induced calcium influx into cells.

Experiment [2] concerns NCI-H460 cancer cell line. The experiment in a line: In-vitro cell proliferation assay in NCI-H460 cancer cell line (MTT). The conditions noted are these: Homo sapiens, 48 h; for IC50: read-out: NCI-H460 Cell line assay G1 50 nM. Here is the method: 1C. In-Vitro Cell Proliferation Assay in NCI-H460 Cancer Cell Line (Anticancer Activity)
Growth inhibition assays were carried out using 10% FBS supplemented media. Cells were seeded at a concentration of 5000 cells/well in a 96-well plate. Test compound at a concentration range from 0.01 to 10000 nM were added after 24 h. Growth was assessed using the 3-[4,5-dimethylthiazol-2-yl]-2,5-diphenyltetrazolium bromide (MTT) dye reduction test at 0 h (prior to the addition of the test compound) and 48 h after the addition of test compound. Absorbance was read on a Fluostar Optima (BMG Labtech, Germany) at a wave length of 450 nm. Data were analysed using GraphPad Prism. IC-50 for each compound was determined based on the % inhibition due to the test compound compared to the control.
For methods of cell proliferation assay, see, for example, Mosmann. T., Journal of Immunological Methods, 65(1-2), 55-63, (1983).

Experiment [3] has as its system IL-2. The experiment in a line: Inhibition of cytokine release in Human Whole Blood: IL-2. The settings on record: Con A + PMA, 20 h, ELISA, read-out: IC 50 Human Whole Blood IL-2. The protocol:
(§1) 2. In Vitro Inhibition of Cytokine Release in Jurkat Cells, Human Whole Blood and Peripheral Blood Mononuclear Cells (PBMC).
(§2) Inhibition of cytokine IL-2, IL-4, IL-5 and TNF α was determined as described below. • a. Inhibition of IL-2 in Jurkat cells: Cells were incubated with desired concentrations of the inhibitor for 15 min. Cytokine release was induced by the addition of Concanavalin A (25 μg/ml)+Phorbol Myristate Acetate (50 ng/ml) for IL-2 & TNFα or with Phytohemagglutinin ([…]) for IL-4 & IL-5 and incubated at 37° C. in an atmosphere containing […]. Supernatant was collected after 20 h (IL-2 & TNFα) or 48 h (IL-4 & IL-5) for estimation of cytokines by ELISA. Data were analysed using GraphPad Prism. IC50 values for each compound were determined based on the percent inhibition due to the test compound compared to the control. • b. Inhibition of cytokine release in Human Whole Blood (HWB): Freshly collected HWB was diluted with RPMI medium (1:4.5) and added to a 96-well plate. Wells were incubated with desired concentrations of the inhibitor for 15 min. Cytokine release was induced by the addition of Concanavalin A (25 μg/ml)+Phorbol Myristate Acetate (50 ng/ml) for IL-2 & TNFα or with Phytohemagglutinin (5 μg/ml) for IL-4 & IL-5 and incubated at 37° C. in an atmosphere containing […]. Supernatant was collected after 20 h (IL-2 & TNFα) or 48 h (IL-4 & IL-5) for estimation of cytokines by ELISA. Data were analysed using GraphPad Prism. IC50 values for each compound were determined based on the percent inhibition due to the test compound compared to the control. • c. Inhibition of cytokine release in PBMC: PBMC from freshly collected HWB were isolated by density gradient using Histopaque and seeded in a 96-well plate. Cells were incubated with desired concentrations of the inhibitor for 15 min. Cytokine release was induced by the addition of Concanavalin A (25 μg/ml)+Phorbol Myristate Acetate (50 ng/ml) for IL-2 & TNFα or with Phytohemagglutinin (5 μg/ml) for IL-4 & IL-5 and incubated at 37° C. in an atmosphere containing […]. Supernatant was collected after 20 h (IL-2 & TNFα) or 48 h (IL-4 & IL-5) for estimation of cytokines by ELISA. Data were analysed using GraphPad Prism. IC50 values for each compound were determined based on the percent inhibition due to the test compound compared to the control.
(In general: In an ELISA, binding on a coated surface is turned into a signal by an enzyme label.)

For the next experiment, the system named is TNFα. Put plainly: Inhibition of cytokine release in Human Whole Blood: TNFα. The settings on record: Con A + PMA, 20 h, ELISA, read-out: IC 50 Human Whole Blood TNFα. Here is the method:
as §1, §2

The target in experiment [4] is T1, CRAC channels. The experiment in a line: In-vitro CRAC channel inhibition assay in Jurkat cells (thapsigargin-induced calcium influx). The procedure, abridged:
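Jurkat cells given test compounds in Ca2+/Mg2+-free Hanks buffer for 15 min, then thapsigargin (1 μM final) for 15 min to deplete ER stores. IC50 from percent inhibition of thapsigargin-induced Ca2+ influx.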

Experiment [5] has as its system IL-2. The experiment in a line: Inhibition of cytokine release in PBMC: IL-2. The settings on record: Homo sapiens, Con A + PMA, 20 h, ELISA, read-out: IC 50 PBMC IL-2. The protocol:
as §1, §2

For the compound `Cc1nnsc1C(=O)Nc1ccc(-n2nc(C3CC3)cc2C2CC2)cc1` [Example 1, N-[4-(3,5-dicyclopropyl-1H-pyrazol-1-yl)phenyl]-4-methyl-1,2,3-thiadiazole-5-carboxamide], the inhibition at 1 µM amounted to 93.2% on CRAC channels [1] and 99% at CRAC channels [4]. In experiment [2], this compound had an inhibition at 10 µM of 31%. In addition, the IC50 with IL-2 [3] turned out to be 338 nM; in the experiment on TNFα it was 1080 nM.

As for `Cc1ncsc1C(=O)Nc1ccc(-n2nc(C3CC3)cc2C2CC2)cc1` [Example 2, N-[4-(3,5-dicyclopropyl-1H-pyrazol-1-yl)phenyl]-4-methylthiazole-5-carboxamide], the inhibition at 1 µM at CRAC channels [1] and on CRAC channels [4] was 100% in each case. Further, in experiment [2], the IC50 was 197 nM.

In the case of `O=C(Nc1ccc(-n2nc(C3CC3)cc2C2CC2)cc1)c1ccccc1` [Example 6, N-[4-(3,5-dicyclopropyl-1H-pyrazol-1-yl)phenyl]benzamide], the inhibition at 1 µM on CRAC channels [1] was determined as 86%; on CRAC channels [4] it was 41.3%. Moreover, the inhibition at 10 µM in experiment [2] was 35%.

`O=C(Nc1ccc(-n2nc(C3CC3)cc2C2CC2)cc1)c1cccc(F)c1F` [Example 9, N-[4-(3,5-dicyclopropyl-1H-pyrazol-1-yl)phenyl]-2,3-difluorobenzamide]: the inhibition at 1 µM at CRAC channels [1] worked out at 86.8%; on CRAC channels [4], 98.6%. Further, in experiment [2], the inhibition at 10 µM was 14%.

Turning to `O=C(Nc1ccc(-n2nc(C3CC3)cc2C2CC2)cc1)C1(c2ccccc2)CC1` [Example 21, N-[4-(3,5-dicyclopropyl-1H-pyrazol-1-yl)phenyl]-1-phenylcyclopropanecarboxamide], the inhibition at 10 µM in experiment [2] is 41%. Further, on CRAC channels [4], the inhibition at 1 µM amounted to 78.4%.

For `O=C(Nc1ccc(-n2nc(C(F)(F)F)cc2C2CC2)cc1)c1c(Cl)cncc1Cl` [Example 49, 3,5-dichloro-N-{4-[5-cyclopropyl-3-(trifluoromethyl)-1H-pyrazol-1-yl]phenyl}isonicotinamide], the IC50 in the experiment on IL-2 [3] was 199 nM. For the same compound, the inhibition at 1 µM on CRAC channels [4] was found to be 100%.

Regarding `Cc1nnsc1C(=O)Nc1ccc(-n2nc(C(F)(F)F)cc2C2CC2)cc1` [Example 52, N-{4-[5-cyclopropyl-3-(trifluoromethyl)-1H-pyrazol-1-yl]phenyl}-4-methyl-1,2,3-thiadiazole-5-carboxamide], the inhibition at 1 µM on CRAC channels [1] came out at 78.2%; at CRAC channels [4], 100%. Also, the inhibition at 10 µM in experiment [2] turned out to be 34%.

Take `Cc1nc(C)c(C(=O)Nc2ccc(-n3nc(C(F)(F)F)cc3C3CC3)cc2)s1` [Example 55, N-{4-[5-cyclopropyl-3-(trifluoromethyl)-1H-pyrazol-1-yl]phenyl}-2,4-dimethylthiazole-5-carboxamide]: the inhibition at 1 µM at CRAC channels [1] and at CRAC channels [4] was 100% in each case. Besides, the IC50 in experiment [2] worked out at 613 nM.

As for `Cc1oncc1C(=O)Nc1ccc(-n2nc(C(F)(F)F)cc2C2CC2)cc1` [Example 56, N-{4-[5-cyclopropyl-3-(trifluoromethyl)-1H-pyrazol-1-yl]phenyl}-5-methylisoxazole-4-carboxamide], the IC50 with IL-2 [3] is 78.4 nM. Further, at CRAC channels [4], the inhibition at 1 µM is 100%.

With `Cc1ncsc1NC(=O)c1ccc(-n2nc(C(F)(F)F)cc2C2CC2)cc1` [Example 78, 4-[5-cyclopropyl-3-(trifluoromethyl)-1H-pyrazol-1-yl]-N-(4-methylthiazol-5-yl)benzamide], the IC50 in the experiment on IL-2 [5] was determined as 149 nM; in the experiment with IL-2 [3] it was 34.7 nM. The inhibition at 1 µM at CRAC channels [4] was found to be 100%.

As to `Cc1nnsc1C(=O)Nc1ccc(-n2nc(C(F)(F)F)cc2C2CC2)c(F)c1` [Example 82, N-{4-[5-cyclopropyl-3-(trifluoromethyl)-1H-pyrazol-1-yl]-3-fluorophenyl}-4-methyl-1,2,3-thiadiazole-5-carboxamide], the IC50 was 24.6 nM in the experiment on IL-2 [5] and 38.2 nM in the experiment on IL-2 [3]. Besides, the inhibition at 1 µM at CRAC channels [4] was 100%.

Turning to `O=C(Nc1ccc(-n2nc(C(F)(F)F)cc2C2CC2)c(F)c1)c1ccncc1` [Example 90, N-{4-[5-cyclopropyl-3-(trifluoromethyl)-1H-pyrazol-1-yl]-3-fluorophenyl}isonicotinamide hydrochloride], in experiment [2], the inhibition at 10 µM turned out to be 90.7% and the IC50 was 305 nM. Also, the inhibition at 1 µM on CRAC channels [4] worked out at 100%.

Regarding `O=C(Nc1ccc(-n2nc(C(F)(F)F)cc2C2CC2)c(F)c1)c1ccncc1F` [Example 91, N-{4-[5-cyclopropyl-3-(trifluoromethyl)-1H-pyrazol-1-yl]-3-fluorophenyl}-3-fluoroisonicotinamide], in experiment [2], at 10 µM the inhibition was 92.7% and the IC50 came out at 1360 nM. In addition, the inhibition at 1 µM on CRAC channels [4] was 100%.

The compound `O=C(Nc1ccc(-n2nc(C(F)(F)F)cc2C2CC2)c(F)c1)c1c(Cl)cncc1Cl` [Example 92, 3,5-dichloro-N-{4-[5-cyclopropyl-3-(trifluoromethyl)-1H-pyrazol-1-yl]-3-fluorophenyl}isonicotinamide] yielded an inhibition at 10 µM in experiment [2] of 100%. At CRAC channels [4], the inhibition at 1 µM was 95.8%.

`O=C(Nc1ccc(-n2nc(C(F)(F)F)cc2C2CC2)nc1)c1cccnc1` [Example 111, N-{6-[5-cyclopropyl-3-(trifluoromethyl)-1H-pyrazol-1-yl]pyridin-3-yl}nicotinamide hydrochloride]: the IC50 in the experiment with IL-2 [3] is 82.8 nM. Besides, on CRAC channels [4], the inhibition at 1 µM was determined as 100%.

For `Cc1ncncc1C(=O)Nc1cnc(-n2nc(C(F)(F)F)cc2C2CC2)nc1` [Example 133, N-{2-[5-cyclopropyl-3-(trifluoromethyl)-1H-pyrazol-1-yl]pyrimidin-5-yl}-4-methylpyrimidine-5-carboxamide], the inhibition at 1 µM on CRAC channels [4] was determined as 5.62%.

Turning to `Cc1ncncc1NC(=O)c1ccc(-n2nc(C(F)(F)F)cc2C2CC2)c(F)c1` [Example 134, 4-[5-cyclopropyl-3-(trifluoromethyl)-1H-pyrazol-1-yl]-3-fluoro-N-(4-methylpyrimidin-5-yl)benzamide], on CRAC channels [4], the inhibition at 1 µM was determined as 18.6%.

Turning to “N-{4-[3-cyclopropyl-5-(difluoromethyl)-1H-pyrazol-1-yl]-3-fluorophenyl}-2,6-difluorobenzamide and N-{4-[5-cyclopropyl-3-(difluoromethyl)-1H-pyrazol-1-yl]-3-fluorophenyl}-2,6-difluorobenzamide [Example 135]”, at CRAC channels [4], the “% inhibition (1 uM)” value amounted to 100%.

Usually inhibition stands for the drop in the measured response relative to a control, in per cent.
